According to patent publication US20260335345A1, “COMPOSITION FOR IMPROVING NICOTINAMIDE MONONUCLEOTIDE PRODUCTION” (MEIJI HOLDINGS CO., LTD., priority 2022, published 2026):

Assays:
[1] = test system: inflammatory bowel disease; conditions: in vivo; cited from earlier work
aged mice [2] = conditions: cited from earlier work
[3] = test system: mice with type II diabetes; conditions: type II diabetes induced by a high-fat diet; cited from earlier work
[4] = NMN administration; cited from earlier work
aged mice [5] = conditions: cited from earlier work; remark: listed apart in the source
[6] = test system: human feces #1 to #3 (human fecal-derived gut microbiota); test: NMN production by human fecal cultures in GAM evaluation medium with 0.5% carbohydrate (Test Example 2); type: cell-based; conditions: 37 °C, anaerobic, 12 hours; for NMN Concentration (Avg Value): GAM medium, average of human feces #1 to #3, only substance of its classification; for NMN concentration in culture (FIG. 2), in words: average of human feces #1 to #3
Procedure: 1 mg of human feces (#1 to 3) collected from different individuals was added to 1 mL of GAM medium supplemented with glucose SO that the final concentration was 0.5%, and cultured at 37 °C in an anaerobic glove box for 12 hours, and then the NMN concentration in the culture solution was measured. As the GAM medium, GAM semi-fluid medium for saccharolysis (manufactured by Nissui Pharmaceutical Co., Ltd.) was dissolved in water to a predetermined concentration, filtered through a 0.8 μm filter, and autoclaved at 115 °C for 15 minutes. The NMN concentration was measured by the following method. That is, first, the supernatant obtained by centrifuging the culture solution was filtered through a 0.22 μm filter, and then the filtrate was mixed with methanol (final concentration: 80 v/v %) and allowed to stand on ice for 30 minutes. Next, the supernatant obtained by centrifuging this was dried using a centrifugal evaporator. Next, the obtained dried product was dissolved in an ammonium acetate solution and subjected to a liquid chromatograph mass spectrometer (LC-MS/MS) for analysis under the following conditions to measure the NMN concentration. (LC-MS/MS analysis conditions)
First, each evaluation medium was prepared by adding any one of the carbohydrates shown in Table 1 below to the GAM medium (without glucose added) so that the final concentration was 0.5%. As a comparative example, an evaluation medium to which distilled water (DW) was added instead of carbohydrate was also prepared. Next, 1 mg of the same human feces #1 to #3 as in Test Example 1 was added to 1 mL of the evaluation medium, and cultured at 37 °C in an anaerobic glove box for 12 hours. After culturing, the NMN concentration in the culture solution was measured by liquid chromatograph mass spectrometer (LC-MS/MS) by the method described in Test Example 1.

[7] = cited from earlier work
[8] = test system: human gut microbiota in human flora mice; test: NMN concentration in feces of human flora mice given kestose (Test Example 4); type: in vivo; conditions: 5% kestose aqueous solution ad libitum
Procedure: 1 mg of human feces (#1 to 3) collected from different individuals was added to 1 mL of GAM medium supplemented with glucose SO that the final concentration was 0.5%, and cultured at 37 °C in an anaerobic glove box for 12 hours, and then the NMN concentration in the culture solution was measured. As the GAM medium, GAM semi-fluid medium for saccharolysis (manufactured by Nissui Pharmaceutical Co., Ltd.) was dissolved in water to a predetermined concentration, filtered through a 0.8 μm filter, and autoclaved at 115 °C for 15 minutes. The NMN concentration was measured by the following method. […]
Using kestose (manufactured by Meiji Food Materia Co., Ltd.), the effect of improving NMN production in the intestine (large intestine) of human flora mice, which were germ-free mice transplanted with human gut microbiota, was evaluated. […] Next, the mixed supernatant was dried using a centrifugal evaporator, the obtained dried product was dissolved in an ammonium acetate solution, filtered through a 0.22 μm filter, and then the NMN concentration in the filtrate was measured by liquid chromatograph mass spectrometer (LC-MS/MS) by the method described in Test Example 1 to calculate the NMN concentration (ng/mL) in the feces.

In the case of NC(=O)c1ccc[n+]([C@@H]2O[C@H](COP(=O)([O-])OP(=O)(O)OC[C@H]3O[C@@H](n4cnc5c(N)ncnc54)[C@H](O)[C@@H]3O)[C@@H](O)[C@H]2O)c1 [NAD, nicotinamide adenine dinucleotide], the “effect in improving inflammatory bowel disease” value [1] is listed as “effective in improving inflammatory bowel disease”.
For NC(=O)c1ccc[n+]([C@@H]2O[C@H](COP(=O)([O-])O)[C@@H](O)[C@H]2O)c1 [NMN, β-nicotinamide mononucleotide], the “effects of NMN administration in aged mice” value (aged mice [2]) is listed as “suppressed age-related obesity, improved energy metabolism, and improved insulin resistance, lipid metabolism, eye function, bone density, and immune function”, the “age-related changes in gene expression” value (aged mice [2]; skeletal muscle, fat, and liver) is listed as “suppression of age-related changes in gene expression in skeletal muscle, fat, and liver” and the “gene expression related to oxidative stress, inflammatory response, and circadian rhythm” value [3] is listed as “restored gene expression related to oxidative stress, inflammatory response, and circadian rhythm”. The “glucose tolerance, hepatic insulin sensitivity” value [3] was “improved glucose tolerance disorder and hepatic insulin sensitivity”, the “age-related declines in organ function and dementia of the Alzheimer type” value [4] was “improved age-related declines in liver function, renal function, skeletal muscle function, and cardiac function, as well as dementia of the Alzheimer type” and the constipation (aged mice [5]) was “improved constipation”.
In the case of O=C(CO)[C@@H](O)[C@@H](O)[C@H](O)CO [Tagatose, D-Tagatose], the “NMN Concentration (Avg Value)” value [6] is reported as 100 ng/mL.
In the case of OC[C@H]1O[C@@H](O[C@H]2[C@H](O)[C@@H](O)C(O)O[C@@H]2CO)[C@H](O)[C@@H](O)[C@@H]1O (stereo partly drawn) [cellobiose, D-Cellobiose], the “NMN concentration in culture (FIG. 2), in words” value (from here on “NMN concentration in culture”) [6] is reported as “higher NMN concentrations than glucose and sucrose”.
For O=C[C@H](O)[C@@H](O)[C@H](O)[C@H](O)CO [glucose, D-Glucose], the “absorption in the small intestine” value [7] is given as “completely absorbed into the body in the small intestine” and the “decomposition and absorption in the upper digestive tract in vivo” value [7] is given as “decomposed and absorbed in the upper digestive tract in vivo”.
In the case of OC[C@H]1O[C@@](CO)(OC[C@@]2(O[C@H]3O[C@H](CO)[C@@H](O)[C@H](O)[C@H]3O)O[C@H](CO)[C@@H](O)[C@@H]2O)[C@@H](O)[C@@H]1O [kestose, 1-Kestose], the “NMN concentration in culture” value [6] is reported as “higher NMN concentrations than glucose and sucrose”, the “amount of NMN produced by human gut microbiota in vivo” value [8] is reported as “increases the amount of NMN produced by human gut microbiota in vivo” and the “NMN concentration in feces vs Day 0” value ([8]; Day 1, 3, and 9 (FIG. 4)) is reported as “higher on Day 1, 3, and 9”.
In the case of OC[C@H]1O[C@@H](O[C@H]2[C@H](O)[C@@H](O)[C@@H](O[C@]3(CO)O[C@H](CO)[C@@H](O)[C@@H]3O)O[C@@H]2CO)[C@H](O)[C@@H](O)[C@H]1O [lactosucrose, Lactosucrose], the “NMN concentration in culture” value [6] is reported as “higher NMN concentrations than glucose and sucrose”.
In the case of OC[C@H]1O[C@H](OC[C@H]2O[C@H](O[C@]3(CO)O[C@H](CO)[C@@H](O)[C@@H]3O)[C@H](O)[C@@H](O)[C@@H]2O)[C@H](O)[C@@H](O)[C@H]1O [raffinose, Raffinose], the “NMN concentration in culture” value [6] is reported as “higher NMN concentrations than glucose and sucrose”.
With CC(=O)N[C@H]1[C@H]([C@H](O)[C@H](O)CO)O[C@@](O[C@H]2[C@@H](O)[C@@H](CO)O[C@@H](O[C@H]3[C@H](O)[C@@H](O)C(O)O[C@@H]3CO)[C@@H]2O)(C(=O)O)C[C@@H]1O (some centres unmarked) [sialyllactose, 3′-Sialyllactose] the “NMN concentration in culture” value [6] was “relatively low NMN concentration”.
In the case of OC[C@H]1O[C@@](CO)(O[C@H]2O[C@H](CO)[C@@H](O)[C@H](O)[C@H]2O)[C@@H](O)[C@@H]1O [sucrose, D-Sucrose], the “decomposition and absorption in the upper digestive tract in vivo” value [7] is given as “decomposed and absorbed in the upper digestive tract in vivo”.
For O=C[C@H](O)[C@@H](O)[C@H](O)CO [xylose], the “absorption in the small intestine” value [7] is listed as “completely absorbed into the body in the small intestine”.
With inulin the “NMN Concentration (Avg Value)” value [6] was 70 ng/mL.
